# Data published in patent publication US20100197914A1, “Purine Derivatives as Adenosine Al Receptor Ligands” (priority 2007, published 2010).
# Biological target: T1, adenosine A1 receptor (Homo sapiens, UniProt P30542)
# T1 sequence (P30542 1-326): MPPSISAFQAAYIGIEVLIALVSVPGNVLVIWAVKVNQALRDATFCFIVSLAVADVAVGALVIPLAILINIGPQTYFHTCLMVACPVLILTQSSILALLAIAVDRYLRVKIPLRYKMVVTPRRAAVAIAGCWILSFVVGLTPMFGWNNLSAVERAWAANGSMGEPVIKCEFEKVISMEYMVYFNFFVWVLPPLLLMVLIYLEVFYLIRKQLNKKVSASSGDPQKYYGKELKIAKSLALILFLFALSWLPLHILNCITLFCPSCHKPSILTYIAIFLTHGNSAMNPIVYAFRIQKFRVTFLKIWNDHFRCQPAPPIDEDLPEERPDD
# Assay: In vitro functional activity based on the stimulation of [35S]-GTPγS binding (SPA, agonist format)
# Format: biochemical
# Conditions: mean of >2 measurements; A1 membranes, [35S]-GTPγS SPA assay; read-out: Mean pEC50 (converted)
# Excerpt: In Vitro Functional Activity at the Human a Receptor Based on the Stimulation of [^35S]-GTPγS Binding
# In brief the assay is based on the conventional GTPγS binding assay described by ([Lorenzen A, Guerra L, Vogt H, et al, (1996)] Interaction of full and partial agonists of the A1 adenosine receptor with receptor/G protein complexes in rat brain membranes. Mol Pharmacol. 49(5):915-26) The assay is run as a SPA assay where the A1 membranes are captured by wheatgerm agglutinin (WGA) SPA beads, through a specific interaction between WGA and carbohydrate residues of glycoprotein's on the surfaces for the membranes. Upon receptor stimulation, [^35S]-GTPγS binds specifically to the alpha subunit of the G-protein thus bringing the [^35S]-GTPγS into close proximity with the SPA beads. Emitted β particles from the [^35S]-GTPγS excite the scintillant in the beads and produce light. […] The assays were performed in a final volume of 250 μL per well in a white non-binding surface 96-well Optiplates and could be run in either an agonist format, or an antagonist format (pre-incubation with an EC50 concentration of the appropriate receptor agonist).
row,SMILES,EC50 [nM]
1,"CCC(=O)N[C@H]1C[C@@H](n2cnc3c(NC4CCCC4)ncnc32)[C@H](O)[C@@H]1O [Example 1, N-[(1S,2R,3S,4R)-4-(6-Cyclopentylamino-purin-9-yl)-2,3-dihydroxy-cyclopentyl]-propionamide]",47.9
2,"O=C(CO)N[C@H]1C[C@@H](n2cnc3c(NC4CCCC4)nc(Cl)nc32)[C@H](O)[C@@H]1O [Example 4, N-[(1S,2R,3S,4R)-4-(2-Chloro-6-cyclopentylamino-purin-9-yl)-2,3-dihydroxy-cyclopentyl]-2-hydroxy-acetamide]",40.1
3,"CCC(=O)N[C@H]1C[C@@H](n2cnc3c(NC4CCCC4)nc(Cl)nc32)[C@H](O)[C@@H]1O [Example 2, N-[(1S,2R,3S,4R)-4-(2-Chloro-6-cyclopentylamino-purin-9-yl)-2,3-dihydroxy-cyclopentyl]-propionamide]",67.7
4,"O=C(CO)N[C@H]1C[C@@H](n2cnc3c(NC4CCCC4)ncnc32)[C@H](O)[C@@H]1O [Example 3, N-[(1S,2R,3S,4R)-4-(6-Cyclopentylamino-purin-9-yl)-2,3-dihydroxy-cyclopentyl]-2-hydroxy-acetamide]",97.9
